In ChEMBL document CHEMBL1155067, “Carbonic anhydrase inhibitors: thioxolone versus sulfonamides for obtaining isozyme-selective inhibitors?” (Bioorg Med Chem Lett, 2008):

Columns and labels:
[1] = target: Carbonic anhydrase 13 (Mus musculus) (UniProt Q9D6N1); experiment: Inhibition of mouse recombinant carbonic anhydrase 13 by stopped flow CO2 hydration method
[2] = target: T1, Carbonic anhydrase 2 (Homo sapiens, UniProt P00918)
[3] = target: T1, Carbonic anhydrase 2; experiment: Inhibition of human recombinant carbonic anhydrase 2 by oxygen-18 isotope exchange assay
[4] = target: Carbonic anhydrase 5B, mitochondrial (Homo sapiens) (UniProt Q9Y2D0)
Sequence of Carbonic anhydrase 5B, mitochondrial (Homo sapiens) (Q9Y2D0 whole entry): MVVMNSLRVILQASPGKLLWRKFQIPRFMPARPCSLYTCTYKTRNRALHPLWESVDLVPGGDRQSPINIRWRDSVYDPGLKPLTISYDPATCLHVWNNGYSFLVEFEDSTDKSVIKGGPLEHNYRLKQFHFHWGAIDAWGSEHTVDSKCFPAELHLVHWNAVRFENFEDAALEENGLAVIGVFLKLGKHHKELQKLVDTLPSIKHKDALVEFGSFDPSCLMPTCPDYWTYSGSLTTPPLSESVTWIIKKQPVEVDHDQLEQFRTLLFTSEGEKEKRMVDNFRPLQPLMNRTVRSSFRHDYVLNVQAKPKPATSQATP
Description: Inhibition of human recombinant carbonic anhydrase 5B by stopped flow CO2 hydration method

[5] = target: Carbonic anhydrase 4 (Homo sapiens) (UniProt P22748)
Sequence of Carbonic anhydrase 4 (Homo sapiens) (P22748 whole entry): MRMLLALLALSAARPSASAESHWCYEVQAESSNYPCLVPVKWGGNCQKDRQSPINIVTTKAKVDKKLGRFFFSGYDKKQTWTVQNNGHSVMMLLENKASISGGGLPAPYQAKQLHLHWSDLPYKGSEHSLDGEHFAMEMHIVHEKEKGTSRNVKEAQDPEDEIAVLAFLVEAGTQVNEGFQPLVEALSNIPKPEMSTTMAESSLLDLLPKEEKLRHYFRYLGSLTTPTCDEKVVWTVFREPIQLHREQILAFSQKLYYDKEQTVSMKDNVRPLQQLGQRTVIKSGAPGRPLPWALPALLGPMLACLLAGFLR
Description: Inhibition of human recombinant carbonic anhydrase 4 by stopped flow CO2 hydration method

[6] = target: Carbonic anhydrase 14 (Homo sapiens) (UniProt Q9ULX7)
Sequence of Carbonic anhydrase 14 (Homo sapiens) (Q9ULX7 whole entry): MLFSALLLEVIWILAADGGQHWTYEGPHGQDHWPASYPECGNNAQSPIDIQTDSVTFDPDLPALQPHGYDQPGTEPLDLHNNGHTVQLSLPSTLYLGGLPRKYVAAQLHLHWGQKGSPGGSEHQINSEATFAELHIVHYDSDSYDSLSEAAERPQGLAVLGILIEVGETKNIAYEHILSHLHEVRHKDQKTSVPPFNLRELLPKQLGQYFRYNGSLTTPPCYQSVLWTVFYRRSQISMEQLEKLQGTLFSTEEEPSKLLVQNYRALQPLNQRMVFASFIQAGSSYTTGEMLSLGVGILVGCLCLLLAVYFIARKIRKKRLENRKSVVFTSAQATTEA
Description: Inhibition of human recombinant carbonic anhydrase 14 by stopped flow CO2 hydration method

[7] = target: Carbonic anhydrase 5A, mitochondrial (Homo sapiens) (UniProt P35218)
Sequence of Carbonic anhydrase 5A, mitochondrial (Homo sapiens) (P35218 whole entry): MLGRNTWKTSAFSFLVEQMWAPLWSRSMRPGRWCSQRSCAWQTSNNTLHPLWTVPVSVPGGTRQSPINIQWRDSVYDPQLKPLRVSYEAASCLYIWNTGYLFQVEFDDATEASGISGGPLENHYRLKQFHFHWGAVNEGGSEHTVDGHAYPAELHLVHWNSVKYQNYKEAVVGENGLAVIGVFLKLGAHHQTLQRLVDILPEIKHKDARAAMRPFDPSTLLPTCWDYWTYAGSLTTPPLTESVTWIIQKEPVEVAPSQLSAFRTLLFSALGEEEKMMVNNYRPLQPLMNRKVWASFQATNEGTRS
Description: Inhibition of human recombinant carbonic anhydrase 5A by stopped flow CO2 hydration method

[8] = target: T2, Carbonic anhydrase 15 (Mus musculus) (UniProt Q99N23); experiment: Inhibition of mouse recombinant carbonic anhydrase 15 by stopped flow CO2 hydration method
T2 sequence (whole entry): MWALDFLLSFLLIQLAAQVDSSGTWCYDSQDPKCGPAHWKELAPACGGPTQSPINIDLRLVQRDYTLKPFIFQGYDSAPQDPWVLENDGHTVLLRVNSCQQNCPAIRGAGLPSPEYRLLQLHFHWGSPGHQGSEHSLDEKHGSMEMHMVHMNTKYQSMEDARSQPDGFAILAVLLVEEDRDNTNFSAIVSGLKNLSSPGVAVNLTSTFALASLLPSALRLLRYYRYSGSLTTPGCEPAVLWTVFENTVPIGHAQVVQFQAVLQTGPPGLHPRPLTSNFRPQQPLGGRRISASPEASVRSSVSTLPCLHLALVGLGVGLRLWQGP

[9] = target: Carbonic anhydrase 9 (Homo sapiens) (UniProt Q16790)
Description: Inhibition of human recombinant carbonic anhydrase 9 catalytic domain by stopped flow CO2 hydration method

[10] = target: Carbonic anhydrase 12 (Homo sapiens) (UniProt O43570)
Sequence of Carbonic anhydrase 12 (Homo sapiens) (O43570 whole entry): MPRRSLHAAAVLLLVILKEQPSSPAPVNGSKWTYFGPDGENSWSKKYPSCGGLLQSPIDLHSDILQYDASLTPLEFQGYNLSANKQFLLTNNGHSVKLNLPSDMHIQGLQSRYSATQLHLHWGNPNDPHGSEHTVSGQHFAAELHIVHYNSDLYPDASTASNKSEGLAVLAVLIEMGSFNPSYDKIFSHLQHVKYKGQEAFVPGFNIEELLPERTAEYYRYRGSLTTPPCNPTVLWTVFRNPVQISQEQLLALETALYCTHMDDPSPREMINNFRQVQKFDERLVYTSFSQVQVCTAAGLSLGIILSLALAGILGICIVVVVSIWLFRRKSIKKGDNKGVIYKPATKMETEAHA
Description: Inhibition of human recombinant carbonic anhydrase 12 catalytic domain by stopped flow CO2 hydration method

[11] = target: Carbonic anhydrase 3 (Homo sapiens) (UniProt P07451)
Sequence of Carbonic anhydrase 3 (Homo sapiens) (P07451 whole entry): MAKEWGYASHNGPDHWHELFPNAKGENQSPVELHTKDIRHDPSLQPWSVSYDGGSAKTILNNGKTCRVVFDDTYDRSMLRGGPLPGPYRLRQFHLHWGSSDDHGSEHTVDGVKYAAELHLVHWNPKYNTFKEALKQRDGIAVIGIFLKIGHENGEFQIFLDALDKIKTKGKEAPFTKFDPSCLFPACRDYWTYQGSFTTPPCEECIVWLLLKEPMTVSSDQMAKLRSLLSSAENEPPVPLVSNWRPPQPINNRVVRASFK
Description: Inhibition of human recombinant carbonic anhydrase 3 by stopped flow CO2 hydration method

[12] = target: Carbonic anhydrase 6 (Homo sapiens) (UniProt P23280)
Sequence of Carbonic anhydrase 6 (Homo sapiens) (P23280 whole entry): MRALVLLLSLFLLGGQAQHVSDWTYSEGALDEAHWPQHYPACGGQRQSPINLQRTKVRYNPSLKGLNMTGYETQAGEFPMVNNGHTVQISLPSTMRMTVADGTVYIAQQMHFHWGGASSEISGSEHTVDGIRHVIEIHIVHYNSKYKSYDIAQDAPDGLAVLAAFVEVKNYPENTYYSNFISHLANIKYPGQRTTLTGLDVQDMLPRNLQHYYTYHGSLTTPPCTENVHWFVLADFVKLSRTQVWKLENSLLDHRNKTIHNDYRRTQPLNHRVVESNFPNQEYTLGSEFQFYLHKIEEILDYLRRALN
Description: Inhibition of human recombinant carbonic anhydrase 6 by stopped flow CO2 hydration method

[13] = target: T1, Carbonic anhydrase 2; experiment: Inhibition of human recombinant carbonic anhydrase 2 assessed as activity of carbonic anhydrase 2 esterase activity against 4-nitrophenyl acetate
[14] = target: Carbonic anhydrase 1 (Homo sapiens) (UniProt P00915)
Sequence of Carbonic anhydrase 1 (Homo sapiens) (P00915 2-261 limits assumed): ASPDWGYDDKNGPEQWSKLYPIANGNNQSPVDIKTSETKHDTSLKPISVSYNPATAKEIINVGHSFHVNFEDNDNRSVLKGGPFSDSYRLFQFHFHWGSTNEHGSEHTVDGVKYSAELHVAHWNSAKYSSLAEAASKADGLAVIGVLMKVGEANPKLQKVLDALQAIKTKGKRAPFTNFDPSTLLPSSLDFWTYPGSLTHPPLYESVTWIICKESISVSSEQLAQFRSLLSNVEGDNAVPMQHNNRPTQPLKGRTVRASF

[15] = target: Carbonic anhydrase 7 (Homo sapiens) (UniProt P43166)
Sequence of Carbonic anhydrase 7 (Homo sapiens) (P43166 whole entry): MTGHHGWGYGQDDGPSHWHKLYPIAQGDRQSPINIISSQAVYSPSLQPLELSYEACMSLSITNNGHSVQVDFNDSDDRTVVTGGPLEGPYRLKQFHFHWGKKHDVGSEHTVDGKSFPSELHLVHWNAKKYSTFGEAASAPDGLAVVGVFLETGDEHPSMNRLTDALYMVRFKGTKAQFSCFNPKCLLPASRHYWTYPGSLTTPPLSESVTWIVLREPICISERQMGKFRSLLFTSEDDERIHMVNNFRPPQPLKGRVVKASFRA

Sequence of Carbonic anhydrase 13 (Mus musculus) (Q9D6N1 whole entry, looked up): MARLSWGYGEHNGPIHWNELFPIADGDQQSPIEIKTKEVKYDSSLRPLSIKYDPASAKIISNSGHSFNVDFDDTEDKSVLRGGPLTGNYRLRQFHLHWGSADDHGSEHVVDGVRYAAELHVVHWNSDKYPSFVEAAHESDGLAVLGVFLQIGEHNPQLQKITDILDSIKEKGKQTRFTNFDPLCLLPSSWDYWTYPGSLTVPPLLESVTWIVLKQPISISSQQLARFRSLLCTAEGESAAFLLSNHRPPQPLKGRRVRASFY

Kinact [1]	Kinact [2]	Kinact [3]	Kinact [4]	Kinact [5]	Kinact [6]	Ki [7]	Ki [8]	Kinact [9]	Kinact [10]	Kinact [11]	Kinact [12]	IC50 [13]	Kinact [14]	Kinact [15]	SMILES
8.23 µM	6.82 µM	314 µM	9.04 µM	8.41 µM	8.59 µM	7.06 µM	7.87 µM	6.67 µM	7.79 µM	6.56 µM	4.93 µM	1.77 µM	0.091 µM	5.73 µM	O=c1oc2cc(O)ccc2s1 [TIOXOLONE]
6.53 µM	0.058 µM	–	0.61 µM	0.072 µM	8.12 µM	0.62 µM	0.78 µM	0.081 µM	0.076 µM	78.6 µM	6.17 µM	–	7.5 µM	0.072 µM	NS(=O)(=O)c1cc(Cl)c(O)c(Cl)c1
